Measurements as given in ChEMBL document CHEMBL1201862, “PubChem BioAssay data set” (2004).
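Values below derive from 48-hour exposures of cells grown in 96-well plates, with endpoints linearly interpolated between the two concentrations bracketing the appropriate inhibition level. GI50 marks 50% less growth.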 Active and inactive are the calls of the source. No stated cut-off is given here; in the data, active = GI50 up to about 1.1 µM and inactive = higher.

Key:
Experiment in all cases: NCI-60 cell line screen, 48 h
[1] = tested on: RPMI-8226
[2] = tested on: HCT-15
[3] = tested on: SNB-19
[4] = tested on: A498
[5] = tested on: HT-29
[6] = tested on: OVCAR-5
[7] = tested on: PC-3
[8] = tested on: SK-OV-3
[9] = tested on: KM12
[10] = tested on: OVCAR-8
[11] = tested on: MDA-MB-231
[12] = tested on: M14
[13] = tested on: MDA-MB-435
[14] = tested on: NCI-H460
[15] = tested on: DU-145
[16] = tested on: ACHN
[17] = tested on: NCI/ADR-RES
[18] = tested on: T47D
[19] = tested on: OVCAR-3
[20] = tested on: SF-295
[21] = tested on: LOX IMVI
[22] = tested on: HOP-62
[23] = tested on: HCC 2998
[24] = tested on: HOP-92
[25] = tested on: HL-60
[26] = tested on: SW-620
[27] = tested on: TK-10
[28] = tested on: MCF7
[29] = tested on: Hs-578T
[30] = tested on: MDA-N
[31] = tested on: MOLT-4
[32] = tested on: SF-268
[33] = tested on: UO-31
[34] = tested on: IGROV-1
[35] = tested on: COLO 205
[36] = tested on: BT-549
[37] = tested on: SNB-75
[38] = tested on: CAKI-1
[39] = tested on: U-251
[40] = tested on: SK-MEL-2
[41] = tested on: HCT-116
[42] = tested on: RXF 393
[43] = tested on: SK-MEL-28
[44] = tested on: SK-MEL-5
[45] = tested on: UACC-257
[46] = tested on: NCI-H522
[47] = tested on: Malme-3M
[48] = tested on: A549
[49] = tested on: EKVX
[50] = tested on: SN12C
[51] = tested on: 786-0
[52] = tested on: SF-539
[53] = tested on: SR
[54] = tested on: UACC-62
[55] = tested on: NCI-H23
[56] = tested on: NCI-H226
[57] = tested on: OVCAR-4
[58] = tested on: K562
[59] = tested on: CCRF-CEM

## c1ccc2c(c1)nc1n2CNCC1
[1]
  GI50: 26.4 µM (inactive)
[2]
  GI50: 50.2 µM
[3]
  GI50: > 100 µM (inactive)
[4]
  GI50: > 100 µM (inactive)
[5]
  GI50: 42.2 µM (inactive)
[6]
  GI50: > 100 µM (inactive)
[7]
  GI50: > 100 µM (inactive)
[8]
  GI50: > 100 µM (inactive)
[9]
  GI50: > 100 µM (inactive)
[10]
  GI50: 58.5 µM (inactive)
[11]
  GI50: > 100 µM (inactive)
[12]
  GI50: > 100 µM (inactive)
[13]
  GI50: > 100 µM (inactive)
[14]
  GI50: > 100 µM (inactive)
[15]
  GI50: 43.3 µM (inactive)
[16]
  GI50: > 100 µM (inactive)
[17]
  GI50: > 100 µM (inactive)
[18]
  GI50: 37.2 µM (inactive)
[19]
  GI50: > 100 µM (inactive)
[20]
  GI50: > 100 µM (inactive)
[21]
  GI50: 24.2 µM (inactive)
[22]
  GI50: > 100 µM (inactive)
[23]
  GI50: > 100 µM (inactive)
[24]
  GI50: > 100 µM (inactive)
[25]
  GI50: 68.5 µM (inactive)
[26]
  GI50: 34.7 µM (inactive)
[27]
  GI50: > 100 µM (inactive)
[28]
  GI50: 45.7 µM (inactive)
[29]
  GI50: > 100 µM (inactive)
[30]
  GI50: > 100 µM (inactive)
[31]
  GI50: 43.3 µM (inactive)
[32]
  GI50: > 100 µM (inactive)
[33]
  GI50: 79.3 µM (inactive)
[34]
  GI50: 94 µM (inactive)
[35]
  GI50: > 100 µM (inactive)
[36]
  GI50: > 100 µM (inactive)
[37]
  GI50: 90.8 µM (inactive)
[38]
  GI50: 49 µM (inactive)
[39]
  GI50: > 100 µM (inactive)
[40]
  GI50: > 100 µM (inactive)
[41]
  GI50: 43.2 µM (inactive)
[42]
  GI50: 90.8 µM (inactive)
[43]
  GI50: 48.3 µM (inactive)
[44]
  GI50: > 100 µM (inactive)
[45]
  GI50: > 100 µM (inactive)
[46]
  GI50: 43.1 µM (inactive)
[47]
  GI50: 63.7 µM (inactive)
[48]
  GI50: > 100 µM (inactive)
[49]
  GI50: > 100 µM (inactive)
[50]
  GI50: > 100 µM (inactive)
[51]
  GI50: > 100 µM (inactive)
[52]
  GI50: > 100 µM (inactive)
[53]
  GI50: 29.7 µM (inactive)
[54]
  GI50: > 100 µM (inactive)
[55]
  GI50: > 100 µM (inactive)
[56]
  GI50: > 100 µM (inactive)
[57]
  GI50: > 100 µM (inactive)

## N#C[BH2-][n+]1cn(C2CC(OP(=O)(O)OCC3OC(n4ccc(N)nc4=O)CC3O)C(CO)O2)c2nc(N)[nH]c(=O)c21 (stereo not given)
[1]
  GI50: > 100 µM (inactive)
[2]
  GI50: > 100 µM
[3]
  GI50: > 100 µM (inactive)
[4]
  GI50: > 100 µM (inactive)
[5]
  GI50: > 100 µM (inactive)
[6]
  GI50: > 100 µM (inactive)
[7]
  GI50: > 100 µM (inactive)
[8]
  GI50: > 100 µM (inactive)
[9]
  GI50: > 100 µM (inactive)
[10]
  GI50: > 100 µM (inactive)
[11]
  GI50: > 100 µM (inactive)
[13]
  GI50: > 100 µM (inactive)
[14]
  GI50: > 100 µM (inactive)
[15]
  GI50: > 100 µM (inactive)
[16]
  GI50: > 100 µM (inactive)
[17]
  GI50: > 100 µM (inactive)
[18]
  GI50: > 100 µM (inactive)
[19]
  GI50: > 100 µM (inactive)
[20]
  GI50: > 100 µM (inactive)
[21]
  GI50: > 100 µM (inactive)
[22]
  GI50: > 100 µM (inactive)
[23]
  GI50: > 100 µM (inactive)
[24]
  GI50: > 100 µM (inactive)
[25]
  GI50: > 100 µM (inactive)
[26]
  GI50: > 100 µM (inactive)
[27]
  GI50: > 100 µM (inactive)
[28]
  GI50: > 100 µM (inactive)
[29]
  GI50: > 100 µM (inactive)
[30]
  GI50: > 100 µM (inactive)
[31]
  GI50: > 100 µM (inactive)
[32]
  GI50: > 100 µM (inactive)
[33]
  GI50: > 100 µM (inactive)
[34]
  GI50: > 100 µM (inactive)
[35]
  GI50: > 100 µM (inactive)
[36]
  GI50: > 100 µM (inactive)
[37]
  GI50: > 100 µM (inactive)
[38]
  GI50: > 100 µM (inactive)
[39]
  GI50: > 100 µM (inactive)
[40]
  GI50: > 100 µM (inactive)
[41]
  GI50: > 100 µM (inactive)
[42]
  GI50: > 100 µM (inactive)
[58]
  GI50: > 100 µM (inactive)
[43]
  GI50: > 100 µM (inactive)
[44]
  GI50: > 100 µM (inactive)
[45]
  GI50: > 100 µM (inactive)
[46]
  GI50: > 100 µM (inactive)
[59]
  GI50: > 100 µM (inactive)
[47]
  GI50: > 100 µM (inactive)
[48]
  GI50: > 100 µM (inactive)
[49]
  GI50: > 100 µM (inactive)
[50]
  GI50: > 100 µM (inactive)
[51]
  GI50: > 100 µM (inactive)
[52]
  GI50: > 100 µM (inactive)
[53]
  GI50: > 100 µM (inactive)
[54]
  GI50: > 100 µM (inactive)
[55]
  GI50: > 100 µM (inactive)
[56]
  GI50: > 100 µM (inactive)
[57]
  GI50: > 100 µM (inactive)
